# Earlier results, collected in patent US20100087382A1, “Inhibitors of Hepatitis C NS3 Protease” (BOEHRINGER INGELHEIM INTERNATIONAL GMBH, priority 2007, published 2010).
# Like-named read-outs stand apart in the source and are kept apart here.
# Experiments:
# hepatitis C virus [1] = settings: two day clinical trial, patients infected with hepatitis C virus
# hepatitis C virus [2] = settings: 28- and 14-day clinical trials, in combination with pegylated interferon with or without ribavirin, during treatment
Compound,viral load in patients (hepatitis C virus [1]),viral load in patients (hepatitis C virus [2])
COc1ccc2c(O[C@@H]3C[C@H]4C(=O)N[C@]5(C(=O)O)C[C@H]5/C=C\CCCCC[C@H](NC(=O)OC5CCCC5)C(=O)N4C3)cc(-c3csc(NC(C)C)n3)nc2c1 [BILN 2061],effective in rapidly reducing viral loads,
CCC[C@H](NC(=O)[C@@H]1[C@H]2CCC[C@H]2CN1C(=O)[C@@H](NC(=O)[C@@H](NC(=O)c1cnccn1)C1CCCCC1)C(C)(C)C)C(=O)C(=O)NC1CC1 [VX-950],,rapidly decreased to undetectable levels
